Assay results from publication PMC7497988 (2020).

How the values were obtained:
[1] = tested on: t-(AT)2 (DNA, duplex) ATATCGCGATAT; test: absorption and fluorescence titration; conditions: Na+ (10 mM sodium phosphate, 10 mM NaCl); buffer A pH 7.5, 25 °C; mixed intercalation and incomplete groove binding
[2] = tested on: CG (DNA, duplex) CGCGCGCGCGCG; test: absorption titration, NMR line broadening; conditions: Na+ (10 mM sodium phosphate, 10 mM NaCl); buffer A pH 7.5, 25 °C; intercalation only, almost no fluorescence enhancement
[3] = tested on: AT (DNA, duplex) CGCGATCGCG; test: absorption and fluorescence titration; conditions: Na+ (10 mM sodium phosphate, 10 mM NaCl); buffer A pH 7.5, 25 °C; mixed intercalation and incomplete groove binding
[4] = tested on: A2T2 (DNA, duplex) CGCGAATTCGCG; test: absorption, fluorescence and NMR titration; conditions: Na+ (10 mM sodium phosphate, 10 mM NaCl); buffer A pH 7.5, 25 °C; minor groove at 1:1, intercalation at low [DNA]/[TC]
[5] = tested on: A3T3 (DNA, duplex) CGCGAAATTTCGCG; test: ITC; conditions: Na+ (10 mM sodium phosphate, 10 mM NaCl); buffer A pH 7.5, 25 °C; TC into 40 μM A3T3; single site model
[6] = tested on: (AT)2 (DNA, duplex) CGCGATATCGCG; test: absorption and fluorescence titration; conditions: Na+ (10 mM sodium phosphate, 10 mM NaCl); buffer A pH 7.5, 25 °C; minor groove at 1:1, intercalation at low [DNA]/[TC]

binding [1]: yes
binding [2]: yes
binding [3]: yes
binding [4]: yes
Kd [5]: 2900 nM
binding [6]: yes
SMILES: CCN(CC)c1ccc2cc(/C=C/c3sc4ccccc4[n+]3C)c(=O)oc2c1
